Structures can show the parent of a compound that is named as a salt.
melting point: > 233 °C
Compound: CNCCNC(=O)c1cc2cc(N3CCN(CCCCc4c[nH]c5ccc(C#N)cc45)CC3)ccc2o1 (as salt: hydrochloride) [f), N-(2-methylaminoethyl)-5-{4-[4-(5-cyano-1H-indol-3-yl)butyl]piperazin-1-yl}benzofuran-2-carboxamide]
